Data: paper PMC4219987 (FEBS Open Bio, 2014)
Where two headings read alike, the source gives them in different places.

Experiments:
[1] = system: LDH-2 (Ec. mundtii LDH-2); conditions: read-out: LDH-2 D241N / pH 5.5, pH 5.5 (MES-NaOH), 3 mM FBP (activator)
[2] = system: LDH-2 (Ec. mundtii LDH-2); conditions: read-out: LDH-2 D241N / pH 5.5; pH 5.5 (MES-NaOH), 1.5 mM NADH, 20 mM pyruvate; allosteric activator

CC(=O)C(=O)O [pyruvate]
Km ([1]; 1.5 mM NADH): 2300 ± 400 µM

NC(=O)C1=CN([C@@H]2O[C@H](COP(=O)(O)OP(=O)(O)OC[C@H]3O[C@@H](n4cnc5c(N)ncnc54)[C@H](O)[C@@H]3O)[C@@H](O)[C@H]2O)C=CC1 [NADH]
Km ([1]; 20 mM pyruvate): 200 ± 40 µM

O=P(O)(O)OC[C@H]1OC(O)(COP(=O)(O)O)[C@@H](O)[C@@H]1O (stereo partly drawn) [FBP]
EC50 [2]: 76 ± 45 nM
